Laboratory results reported in patent US5235045A, “Non-azo naphthalimide dyes” (priority 1992, dated 1993).
Like-named read-outs stand apart in the source and are kept apart here.

Tests used:
[1] = Bleaching and recovery of fluorescence in aqueous suspension of Cremophor EL; assay type: physicochemical
Procedure: A 14.9 millimolar stock solution of Ed6Br in Cremophor EL was used to make 3 ml of a micellar Cremophor suspension having a concentration averaged over the entire sample volume of […]. A […] aliquot was removed and diluted with 2.9 ml of distilled water for measurement of fluorescence using an SLM 500C spectrofluorometer (excitation, 420 nm, emission, 520 nm). The 3 ml sample was divided into two 1.5 ml aliquots placed in quartz crusetts. One sample was irradiated with stirring with 420 # 5 nm filtered light from a xenon arc lamp with an irradiance of 20 mW/cm^2 and with the companion sample wrapped in aluminum foil (dark control) and maintained alongside of the irradiated sample. […] After the entire light treatment, both the illuminated and dark control samples were divided into two equal aliquots and held pairwise (dark+previously illuminated) at 4° C. and 20° C. in the absence of light. Aliquots of […] were taken from each sample after 18 and 43 hr and their fluorescence emission values determined using the SLM 500C instrument immediately after sampling.
In an experiment eventually following the protocol described immediately above in Part I (for Ed6Br), the light-induced bleaching of DiEd6Br with 200 J/cm^2 light exposure and recovery of its fluorescence upon standing in the dark at 22° C. were determined.

[2] = tested on: H9 cells; assay: Dye-mediated light kill of H9 cells (trypan blue); assay type: cell-based; conditions: Homo sapiens, read-out: Percent Viability
Procedure: Photoinduced killing of H9 cells with Compound 1b as the mediator of photochemical toxicity were carried out according to the following protocol:
Compound 1b was added to the H9 cells (5×10^5 /ml) in medium or 100% human plasma to give dye concentrations of 0, 25 and 100 μM (1 control, 2 duplicates of both non-azo dye samples). Two 2-ml aliquots of each of the duplicated dye samples was irradiated with 10J/cm^2 total energy of 450±35 nm wavelength light in a sealed 3-ml test tube. Immediately after irradiation, the cells were centrifuged at 450×g for 10 minutes, and the pellets resuspended in the original volume of fresh RPMI-1640+10% FCS+gentamycin. The cell suspensions were transferred to a 12-well TC plate and placed in a 37° C. 5% CO2 incubator. Cell viability counts (trypan blue) were carried out at 4, 24, 48, and 72 hours post irradiation. The results of these experiments are summarized in Tables 7 (medium) and 8 (100% human plasma).
Photoinduced killing of H9 cells with Compound VII as the mediator of photochemical toxicity were carried out in 10% FCS medium according to the same general protocol using concentrations of the dye at 0, 5, 25 and 100 μM., and irradiating at 420±5 nm at 10J/cm^2 total energy.

[3] = Cell viability in absence of light (trypan blue exclusion); assay type: cell-based, human; conditions: human, dark, medium 1.5 hours, counted 2.5 hours after
Text: (§1) Following the protocol of (1), above, H9 cells were stained with Compound lb, and the technique of fluorescent microscopy was used to determine visually the sites of localization of dye fluorescence in living cells. Specifically, H9 cells were counted with a hemocytometer and diluted to 5×10^5 /ml. […] Cytospin slides of the cell suspensions were made and they were examined with the fluorescence microscope (Olympus AH-2) using B excitation plus a 460 nm interference excitation filter and a 495 nm emission filter. The cells were also counted with a hemocytometer and their viability determined (see below). […] The former may reflect the diffusional component of the dye incorporation, or may reflect binding in the ER membrane. The latter may indicate lysosomal localization of pinocytosed dye as occurs with Lucifer Yellow.
(§2) Cell viability was determined using dye incorporated according to the protocol directly above. Viability was determined using a trypan blue dye exclusion test in which "live" cells with competent cell membranes exclude the dye. Table 5 summarizes the data obtained using cells exposed to Compound 1b in culture medium, and Table 6 summarizes data obtained using cells exposed to Compound VII.

[4] = tested on: H9 cells; assay: as above; assay type: cell-based, human; conditions: dark, medium 1.5 hours, counted 2.5 hours after
Text: as §1, §2

[5] = H9, 4 h, no hν, 10% FCS medium, 4 hours
[6] = H9, 4 h, no hν, 100% human plasma, 4 hours
[7] = H9, 24 h, no hν, 10% FCS medium, 24 hours
[8] = H9, 24 h, no hν, 100% human plasma, 24 hours
[9] = H9, 48 h, no hν, 10% FCS medium, 48 hours
[10] = H9, 48 h, no hν, 100% human plasma, 48 hours
[11] = H9, 72 h, no hν, 10% FCS medium, 72 hours
[12] = H9, 72 h, no hν, 100% human plasma, 72 hours
[13] = H9, light or radiation study, 4 h, hν 10J/cm^2, 450±35 nm, 10% FCS medium, 4 hours
[14] = H9, light or radiation study, 4 h, hν 10J/cm^2, 450±35 nm, 100% human plasma, 4 hours
[15] = H9, light or radiation study, 24 h, hν 10J/cm^2, 450±35 nm, 10% FCS medium, 24 hours
[16] = H9, light or radiation study, 24 h, hν 10J/cm^2, 450±35 nm, 100% human plasma, 24 hours
[17] = H9, light or radiation study, 48 h, hν 10J/cm^2, 450±35 nm, 10% FCS medium, 48 hours
[18] = H9, light or radiation study, 48 h, hν 10J/cm^2, 450±35 nm, 100% human plasma, 48 hours
[19] = H9, light or radiation study, 72 h, hν 10J/cm^2, 450±35 nm, 10% FCS medium, 72 hours
[20] = H9, light or radiation study, 72 h, hν 10J/cm^2, 450±35 nm, 100% human plasma, 72 hours

SMILES: CCCCCCN1C(=O)c2cccc3c(NCCNC(=O)CCCCC(=O)NCCNc4c(Br)cc5c6c(cccc46)C(=O)N(CCCCCC)C5=O)c(Br)cc(c23)C1=O [Compound XLIV]
- fluorescence, % of initial (dark) value ([1]; 200 J/cm^2, 420 nm): 32.2%
- fluorescence recovered, % of initial value ([1]; 70 hours at 22° C.): 62.7%
- fluorescence recovered, % of initial value ([1]; 166 hours at 22° C.): 64.0%
- initially activated species permanently losing fluorescence ([1]; Cremophor EL): Approximately 50%
- initially activated species recovering fluorescence ([1]; Cremophor EL): Approximately 50%

SMILES: CCCCCCNc1ccc2c3c(cccc13)C(=O)N(CCCCCC)C2=O [Compound 1b, 4-(hexyl)amino-N-hexyl-1,8-naphthalimide]
- viability at 25 µM [2, 5]: 96.9%
- viability at 25 µM [2, 6]: 97.2%
- viability at 100 µM [2, 5]: 94.6%
- viability at 100 µM [2, 6]: 99.2%
- viability at 25 µM [2, 7]: 94.8%
- viability at 25 µM [2, 8]: 93.4%
- viability at 100 µM [2, 7]: 94.6%
- viability at 100 µM [2, 8]: 94.3%
- viability at 25 µM [2, 9]: 90.5%
- viability at 25 µM [2, 10]: 86.4%
- viability at 100 µM [2, 9]: 91.3%
- viability at 100 µM [2, 10]: 90.7%
- viability at 25 µM [2, 11]: 91.4%
- viability at 25 µM [2, 12]: 85%
- viability at 100 µM [2, 11]: 85.1%
- viability at 100 µM [2, 12]: 87.4%
- viability at 25 µM [2, 13]: 62.8%
- viability at 25 µM [2, 14]: 97.9%
- viability at 100 µM [2, 13]: 87.2%
- viability at 100 µM [2, 14]: 97.4%
- viability at 25 µM [2, 15]: 8.4%
- viability at 25 µM [2, 16]: 94.4%
- viability at 100 µM [2, 15]: 52%
- viability at 100 µM [2, 16]: 92.4%
- viability at 25 µM [2, 17]: 10%
- viability at 25 µM [2, 18]: 86.5%
- viability at 100 µM [2, 17]: 64.8%
- viability at 100 µM [2, 18]: 92.6%
- viability at 25 µM [2, 19]: 30.6%
- viability at 25 µM [2, 20]: 90.2%
- viability at 100 µM [2, 19]: 71.4%
- viability at 100 µM [2, 20]: 88.2%
- viability at 1.5 h, 5 µM ([3]; 5 μM): 96.7%
- viability at 1.5 h, 25 µM ([3]; 25 μM): 97.1%
- dead cells ([4]; 5 μM): 4
- live cells ([4]; 5 μM): 116
- dead cells ([4]; 25 μM): 4
- live cells ([4]; 25 μM): 136
